“Also recorded” adds a separate entry of the source.
molecular target: SHP2 (D2C) (Homo sapiens (Human), UniProt Q06124); assay: SHP2 (D2C) pNPP inhibition assay, hits of library 7′a-c; type: biochemical; conditions: not given
Description: These three libraries were further screened at 10 μM for SHP2. […] Three pairs of hits bearing the same amine scaffold from library 7′a and 7′c were resynthesized and purified by HPLC. […] (Table 1).
In this Example, SHP2 (D2C) was used to transform into E. coli BL21/DE3 and grown in LB medium containing 50 μg/ml kanamycin at 37° C. to an OD600 of 0.4. Following the addition of IPTG to a final concentration of 20 μM, the culture was incubated at 20° C. with shaking for an additional 16 hours. The cells were harvested by centrifugation at 5000 rpm for 5 minutes at 4° C. The bacterial cell pellets were resuspended in 20 mM Tris, pH 7.9, 500 mM NaCl, 5 mM imidazole, and were lysed by passage through a French press cell at 1,200 psi twice. Cellular debris was removed by centrifugation at 16,000 rpm for 30 minutes at 4° C. The protein was purified from the supernatant using standard procedures of Ni-nitrilotriacetic acid-agarose (Qiagen) affinity purification. The protein eluted from Ni-NTA column was concentrated with an Amicon Ultra centrifugal filter device (Millipore) and the buffer was changed to 20 mM Tris, pH 7.5, 150 mM NaCl, 1 mM EDTA and 1 mM DTT. Protein concentration was determined using the Bradford dye binding assay (Bio-Rad) diluted according to the manufacturer's recommendations with bovine serum albumin as standard. The purified SHP 2 (D2C) were made to 30% glycerol and stored at −20° C.
Inhibition Study: The inhibition assays were performed at 25° C. in 50 mM 3,3-dimethylglutarate buffer, pH 7.0, containing 1 mM EDTA with an ionic strength of 0.15M adjusted by NaCl. The salicylic acid based library was screened in a 96-well format at 10 μM compound concentration. […] The reaction was quenched after 10 minutes by the addition of 50 μl of 5N NaOH, and then this reaction mixture was detected for absorbance at 405 nm by a Spectra MAX340 microplate spectrophotometer (Molecular Devices). IC50 values were calculated by fitting the absorbance at 405 nm versus inhibitor concentration to the following equation: AI/A0=IC50/(IC50+[I]) where AI is the absorbance at 405 nm of the sample in the presence of inhibitor; A0 is the absorbance at 405 nm in the absence of inhibitor; and [I] is the concentration of the inhibitor.

Chain of SHP2 (D2C) (Q06124 240-528): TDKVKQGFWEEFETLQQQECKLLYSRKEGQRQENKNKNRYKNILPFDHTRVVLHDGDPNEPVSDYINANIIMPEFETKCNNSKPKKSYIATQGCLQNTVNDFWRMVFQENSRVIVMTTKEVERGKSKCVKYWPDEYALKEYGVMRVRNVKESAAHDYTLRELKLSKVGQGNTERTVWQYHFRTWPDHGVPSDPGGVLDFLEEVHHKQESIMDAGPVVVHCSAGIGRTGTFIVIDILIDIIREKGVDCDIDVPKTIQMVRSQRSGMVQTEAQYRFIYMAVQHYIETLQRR

Row | potency for SHP2 relative to 7′a-3 [fold] | SMILES
1 | 12 | Cn1c(-c2ccc(C(=O)Nc3ccc(OCc4ccccc4)c(Cl)c3)cc2)c(I)c2cc(C(=O)O)c(O)cc21 [7′c-3, 2-(4-((4-(benzyloxy)-3-chlorophenyl)carbamoyl)phenyl)-6-hydroxy-3-iodo-1-methyl-1H-indole-5-carboxylic acid]

same assay, conditions: pNPP substrate, pH 7, 25° C.; library 7′a / 7′c hits

Row | SMILES | IC50 [µM]
2 | Cn1c(-c2ccc(C(=O)Nc3cccc(OCc4ccccc4)c3)cc2)c(I)c2cc(C(=O)O)c(O)cc21 [7′c-1, 2-(4-((3-(benzyloxy)phenyl)carbamoyl)phenyl)-6-hydroxy-3-iodo-1-methyl-1H-indole-5-carboxylic acid] | 2.4 ± 0.1
3 | Cn1c(-c2ccc(C(=O)Nc3ccc(OCc4ccccc4)c(Cl)c3)cc2)c(I)c2cc(C(=O)O)c(O)cc21 [7′c-3, 2-(4-((4-(benzyloxy)-3-chlorophenyl)carbamoyl)phenyl)-6-hydroxy-3-iodo-1-methyl-1H-indole-5-carboxylic acid] | 1.6

Second part, the molecule after the results:

Row | IC50 [µM] | SMILES
4 | > 20 | Cn1c(CCCC(=O)O)c(I)c2cc(C(=O)O)c(O)cc21 [7′a, 2-(3-carboxypropyl)-6-hydroxy-3-iodo-1-methyl-1H-indole-5-carboxylic acid]
5 | 5 ± 0.3 | Cn1c(CCCC(=O)Nc2cccc(OCc3ccccc3)c2)c(I)c2cc(C(=O)O)c(O)cc21 [7′a-1, 2-(4-((3-(benzyloxy)phenyl)amino)-4-oxobutyl)-6-hydroxy-3-iodo-1-methyl-1H-indole-5-carboxylic acid]
6 | 12.6 ± 2.8 | Cn1c(CCCC(=O)NCc2ccc3c(c2)OCO3)c(I)c2cc(C(=O)O)c(O)cc21 [7′a-2, 2-(4-((benzo[d][1,3]dioxol-5-ylmethyl)amino)-4-oxobutyl)-6-hydroxy-3-iodo-1-methyl-1H-indole-5-carboxylic acid]
7 | > 20 | Cn1c(CCCC(=O)Nc2ccc(OCc3ccccc3)c(Cl)c2)c(I)c2cc(C(=O)O)c(O)cc21 [7′a-3, 2-(4-((4-(benzyloxy)-3-chlorophenyl)amino)-4-oxobutyl)-6-hydroxy-3-iodo-1-methyl-1H-indole-5-carboxylic acid]
8 | 9.2 ± 0.5 | Cn1c(-c2ccc(C(=O)O)cc2)c(I)c2cc(C(=O)O)c(O)cc21 [7′c, 2-(4-carboxyphenyl)-6-hydroxy-3-iodo-1-methyl-1H-indole-5-carboxylic acid]

test system: Paxillin (pY118); assay: Paxillin (pY118) phosphorylation in H1975 cells (immunoblot); type: cell-based, human; conditions: 2 μM
Description: (§1) For biochemical studies, H1975 cells were serum-starved overnight followed by treatment with vehicle or compound 11a-1 for 3 hours, and then either left unstimulated or stimulated with 5 ng/ml EGF (Sigma, St. Louis, Mo.) for 60 minutes. Lysates were then resolved by SDS-PAGE and the protein phosphorylation levels were detected by immunoblot analysis. Specifically, cells were lysed in lysis buffer (1.0% Nonidet P-40, 50 mM Tris-HCl (pH 7.4), 150 mM NaCl, 5 mM EDTA, 2 mM NaVO3, 10 mM NaF) plus a protease inhibitor mixture available from Roche (Basel, Switzerland) and centrifuged at 10,000 rpm for 5 minutes at 4° C. Supernatants were collected and protein concentration was determined using the BCA protein assay (ThermoFisher Scientific, Rockford, Ill.). Equal amount of protein extracts were mixed with gel loading buffer and separated on SDS-PAGE. After electrophoresis, the proteins were transferred onto nitrocellulose membranes and nonspecific binding was blocked with 5% nonfat dry milk in Tris-buffered saline containing 0.1% Tween-20 (TBS-T). Membranes were then probed with various antibodies overnight at 4° C. on a rocker. After incubation, membranes were washed with TBS-T and incubated with appropriate horseradish peroxidase (HRP)-conjugated secondary antibodies for 1 hour at room temperature. Finally, the proteins on the membranes were detected using SuperSignal West Dura Luminol/Enhancer solution (ThermoFisher Scientific, Rockford, Ill.) and membranes were analyzed using Bio-Rad ChemiDoc XRS Imaging System.

Row | SMILES | effect on Paxillin phosphorylation, in words
9 | Cn1c(-c2cccc(NC(=O)C(=O)O)c2)c(I)c2cc(C(=O)O)c(O)cc21 [10a, 2-(3-(carboxyformamido)phenyl)-6-hydroxy-3-iodo-1-methyl-1H-indole-5-carboxylic acid] | no effect

molecular target: SHP2 (Homo sapiens (Human), UniProt Q06124); assay: SHP2-catalyzed hydrolysis of p-nitrophenyl phosphate (pNPP); type: biochemical; conditions: pNPP substrate, pH 7.0, 25° C.
Description: Libraries 11a-d were screened at ˜5 μM for SHP2 inhibitors without further purification. The ability of the library components to inhibit the SHP2-catalyzed hydrolysis of p-nitrophenyl phosphate (pNPP) was evaluated at pH 7.0 and 25° C. More particularly, the phosphatase activity of SHP2 was assayed using p-nitrophenyl phosphate (pNPP) as a substrate at 25° C. in 50 mM 3,3-dimethylglutarate buffer, pH 7.0, containing 1 mM EDTA with an ionic strength of […] adjusted by NaCl. The libraries were screened in a 96-well format at 5 μM compound concentration. […] The nonenzymatic hydrolysis of pNPP was corrected by measuring the control without the addition of enzyme. The amount of product p-nitrophenol was determined from the absorbance at 405 nm detected by a Spectra MAX340 microplate spectrophotometer (Molecular Devices, Sunnyvale, Calif.) using a molar extinction coefficient of 18,000 M^−1 cm^−1. […] IC50 values for selected resynthesized and purified hits were calculated by fitting the absorbance at 405 nm versus inhibitor concentration to the following equation: AI/A0=IC50/(IC50+[I]) where AI is the absorbance at 405 nm of the sample in the presence of the inhibitor; A0 is the absorbance at 405 nm in the absence of inhibitor; and [I] is the concentration of the inhibitor.

Row | IC50 [µM] | SMILES
10 | 14.4 | Cn1c(-c2cccc(NC(=O)C(=O)O)c2)c(I)c2cc(C(=O)O)c(O)cc21 [10a, 2-(3-(carboxyformamido)phenyl)-6-hydroxy-3-iodo-1-methyl-1H-indole-5-carboxylic acid]
11 | 4.5 ± 1.4 | Cn1c(-c2cccc(NC(=O)CCC(=O)Nc3cccc(OCc4ccccc4)c3)c2)c(I)c2cc(C(=O)O)c(O)cc21 [11c-4, 2-(3-(4-((3-(benzyloxy)phenyl)amino)-4-oxobutanamido)phenyl)-6-hydroxy-3-iodo-1-methyl-1H-indole-5-carboxylic acid]
12 | 7.2 ± 0.9 | Cn1c(-c2cccc(NC(=O)CCC(=O)N3CCc4cc(Br)ccc43)c2)c(I)c2cc(C(=O)O)c(O)cc21 [11c-6, 2-(3-(4-(5-bromoindolin-1-yl)-4-oxobutanamido)phenyl)-6-hydroxy-3-iodo-1-methyl-1H-indole-5-carboxylic acid]
13 | 8.6 ± 2.3 | Cn1c(-c2cccc(NC(=O)CCC(=O)Nc3ccc(OC(F)(F)F)cc3)c2)c(I)c2cc(C(=O)O)c(O)cc21 [11c-7, 6-hydroxy-3-iodo-1-methyl-2-(3-(4-oxo-4-((4-(trifluoromethoxy)phenyl)amino)butanamido)phenyl)-1H-indole-5-carboxylic acid]
14 | 10.7 ± 2.4 | CC(C)c1ccc(NC(=O)CCC(=O)Nc2cccc(-c3c(I)c4cc(C(=O)O)c(O)cc4n3C)c2)cc1 [11c-8, 6-hydroxy-3-iodo-2-(3-(4-((4-isopropylphenyl)amino)-4-oxobutanamido)phenyl)-1-methyl-1H-indole-5-carboxylic acid]
15 | 14 ± 1 | Cn1c(-c2cccc(NC(=O)CCC(=O)NCc3ccc4c(c3)OCO4)c2)c(I)c2cc(C(=O)O)c(O)cc21 [11c-9, 2-(3-(4-((benzo[d][1,3]dioxol-5-ylmethyl)amino)-4-oxobutanamido)phenyl)-6-hydroxy-3-iodo-1-methyl-1H-indole-5-carboxylic acid]
16 | > 20 | CCCN(CC1CC1)C(=O)CCC(=O)Nc1cccc(-c2c(I)c3cc(C(=O)O)c(O)cc3n2C)c1 [11c-10, 2-(3-(4-((cyclopropylmethyl)(propyl)amino)-4-oxobutanamido)phenyl)-6-hydroxy-3-iodo-1-methyl-1H-indole-5-carboxylic acid]
17 | 26 ± 5 | Cn1c(-c2cccc(NC(=O)CCC(=O)Nc3nccs3)c2)c(I)c2cc(C(=O)O)c(O)cc21 [11c-11, 6-hydroxy-3-iodo-1-methyl-2-(3-(4-oxo-4-(thiazol-2-ylamino)butanamido)phenyl)-1H-indole-5-carboxylic acid]

Row | SMILES | IC50 [µM]
18 | Cn1c(-c2cccc(NC(=O)CCC(=O)Nc3cccc(-c4ccccc4)c3)c2)c(I)c2cc(C(=O)O)c(O)cc21 [11c-5, 2-(3-(4-([1,1′-biphenyl]-3-ylamino)-4-oxobutanamido)phenyl)-6-hydroxy-3-iodo-1-methyl-1H-indole-5-carboxylic acid] | 5.3 ± 0.9

test system: EGF-induced Erk1/2 phosphorylation; assay: EGF-induced Erk1/2 phosphorylation in H1975 cells (immunoblot); type: cell-based, human; conditions: H1975 cells, 2 μM
Description: as §1

Row | SMILES | effect on Erk1/2 phosphorylation (SHP2 dependent signaling), in words
19 | Cn1c(-c2cccc(NC(=O)C(=O)O)c2)c(I)c2cc(C(=O)O)c(O)cc21 [10a, 2-(3-(carboxyformamido)phenyl)-6-hydroxy-3-iodo-1-methyl-1H-indole-5-carboxylic acid] | no effect; also recorded: failed to block
